Key:
[1] = Plasma pharmacokinetic study after single intravenous administration; assay type: in vivo; conditions: Sprague-Dawley, rat, rats, single i.v. 5 mg/kg
Experimental: In this study, a direct protein precipitation method was applied to extract alnustone and IS from the biological matrix. An aliquot 100 μL of plasma, 50 μL of IS solution (1 μg/mL) and 200 μL of precipitate agent acetonitrile with 0.5% formic acid was added into a 1.5 mL Eppendorf tube. The mixture was vortex-mixed for 30 s at room temperature, and centrifuged at 12,000× g for 10 min. […] The residuals were reconstituted in 100 μL of methanol-0.1% fomic acid water (20:80, v/v) by vortex mixing for 30 s. After centrifuging at 12,000× g for 10 min, a 10 μL aliquot of the supernatant was used for the UHPLC-MS/MS analysis. The mobile phase consisted of methanol and 0.1% formic acid water using a gradient dilution at a flow rate of 0.3 mL/min. The column temperature was maintained at 30 °C. Alnustone was quantitatively determined with MRM in the positive ion mode, and nitrogen was used to assist nebulization in the ESI source. The MS parameters were set as follows: The ionspray voltage (IS) 5500 V; nebulizer gas (gas 1) 19 arbitrary units; curtain gas (CUR) 10 arbitrary units; collision cell exit potential (CXP) 7.0 V; entrance potential (EP) 10.0 V. The optimization of the MS transitions using the multiple-reaction monitoring (MRM) mode were accomplished as alnustone m/z 262.9→105.2 and IS (caffeine) m/z 195.2→138.0, respectively. For the pharmacokinetic study, 12 SD rats fasted for 12 h with free access to water prior to administration. After the rats were tail intravenously administrated of alnustone (5 mg/kg), a blood sample (0.4 mL) was collected from the orbital vein into heparinized tubes at appropriate time intervals (2 min, 5 min, 10 min, 15 min, 30 min, 45 min, 1 […]). The blank plasma samples were prepared before dosing. All blood samples were immediately centrifuged at 12,000× g for 10 min and stored at -75 °C until analysis. The pharmacokinetic parameters were evaluated using DAS 3.2.8 pharmacokinetic program.

neuraminidase = tested on: neuraminidase; design: method as in PMID 20014777; conditions: cited from earlier work

O=C(/C=C/C=C/c1ccccc1)CCc1ccccc1 [alnustone, Alnustone]
Tmax [1]: 2 min
AUC(0-inf) ([1]; n = 12): 6.03 ± 0.473 µg·h/mL
Cmax ([1]; n = 12): 7.07 ± 0.821 µg/mL
Vd ([1]; n = 12): 1.57 ± 0.18 L/kg
clearance ([1]; n = 12): 0.83 L/h/kg
half-life ([1]; n = 12): 1.31 ± 0.19 h
MRT inf ([1]; n = 12, read-out: MRT0–∞): 1.6 ± 0.22 h
MRT last ([1]; read-out: MRT0-t (total mean residence time up to 10 h)): 1.6 ± 0.22 h
AUC(0-t) ([1]; up to 10 h, n = 12): 6.01 ± 0.567 µg·h/mL
neuraminidase inhibitory activity (neuraminidase): showed neuraminidase inhibitory activity

Source: paper PMC6749364, “Pharmacokinetics and Tissue Distribution of Alnustone in Rats after Intravenous Administration by Liquid Chromatography-Mass Spectrometry” (Molecules, 2019)
